pIC50: −log10 of the molar value. Entries after “also recorded” stand apart in the source; their conditions may differ.
Experiments:
[1] = system: estrogen-responsive reporter gene, ERE-tk109-Luc; assay: Inhibition of E2-induced transcription, ERE-tk109-Luc reporter in MCF-7 cells; type: cell-based; details: Homo sapiens, MCF7; read-out: Inhibition of E2-induced transcription in breast cells, IC50
Method: Representative compounds were tested for their inhibitory activity of estrogen according to the assay methods described in Hodges-Gallagher, L., Valentine, C. V., El Bader, S. and Kushner, P. J. (2007) “Histone Deacetylase Inhibitors Enhance the Efficacy of Hormonal Therapy Agents on Breast Cancer Cells and Blocks Anti-estrogen-Driven Uterine Cell Proliferation” Breast Cancer Res Treat, November; 105(3):297-309. Specifically, MCF-7 cells were transiently transfected with an estrogen-responsive reporter gene, ERE-tk109-Luc. Transfected cells were treated with antiestrogens in hormone-depleted medium in the presence of 100 pM 17β-estradiol (E2) for 22 hours. Luciferase activity was normalized to activity of E2 alone and IC50's were calculated using the least squares fit method.
A representative result for inhibition of E2-induced transcription in breast cells (nM) is shown below in tabular form: […]

[2] = system: AP activity in ECC-1 cells; assay: Alkaline phosphatase (AP) assay in ECC-1 uterine cells, agonist mode; type: cell-based, human; details: for AP Agonist Act. (% of E2): ECC-1 cells, without E2; for Induction of Alkaline Phosphatase (AP) % E2: mean of n experiments; for Induction of AP activity in uterine cells (% E2): representative result
Method: Method for performing the alkaline phosphatase (AP) assay. ECC-1 cells were trypsinized and resuspended in hormone-depleted media and plated at a density of 15k cells per well into a 96-well plate for at least 4 hours. Cells were treated with antiestrogens for 3 days and plates were subsequently frozen at −80° C. Thawed plates were incubated with a chromogenic substrate of AP, p-nitrophenyl phosphate (Thermo Fisher Scientific), for 40 minutes at 40° C. and absorbances were read at 405 nm. AP activity was normalized to the activity of E2 alone. […] A representative result for induction of AP activity in uterine cells (% E2) is shown below in tabular form: […]

[3] = system: AP activity in ECC-1 cells; assay: Alkaline phosphatase (AP) assay in ECC-1 uterine cells co-treated with 500 pM E2, antagonist mode; type: cell-based, human; details: for AP Antagonist Act. (% of E2): ECC-1 cells, co-treated with 500 pM E2
Method: Method for performing the alkaline phosphatase (AP) assay. ECC-1 cells were trypsinized and resuspended in hormone-depleted media and plated at a density of 15k cells per well into a 96-well plate for at least 4 hours. Cells were treated with antiestrogens for 3 days and plates were subsequently frozen at −80° C. […] AP activity was normalized to the activity of E2 alone.

[4] = target: T1, ERα (Homo sapiens (Human), UniProt P03372); assay: ER degradation, immunoblot of MCF-7 protein extracts; type: cell-based; details: 100 nM, 24 hours
Method: MCF-7 cells were treated with 100 nM anti-estrogen for 24 hours in serum-free medium and protein extracts immunoblotted with D12 antibody to ERα and β-actin (Santa Cruz Biotechnology). The numbers below the blots represent the optical density of ERα bands of each treatment relative to percent vehicle after normalization to β-actin.
Target sequence in this assay (P03372 whole entry): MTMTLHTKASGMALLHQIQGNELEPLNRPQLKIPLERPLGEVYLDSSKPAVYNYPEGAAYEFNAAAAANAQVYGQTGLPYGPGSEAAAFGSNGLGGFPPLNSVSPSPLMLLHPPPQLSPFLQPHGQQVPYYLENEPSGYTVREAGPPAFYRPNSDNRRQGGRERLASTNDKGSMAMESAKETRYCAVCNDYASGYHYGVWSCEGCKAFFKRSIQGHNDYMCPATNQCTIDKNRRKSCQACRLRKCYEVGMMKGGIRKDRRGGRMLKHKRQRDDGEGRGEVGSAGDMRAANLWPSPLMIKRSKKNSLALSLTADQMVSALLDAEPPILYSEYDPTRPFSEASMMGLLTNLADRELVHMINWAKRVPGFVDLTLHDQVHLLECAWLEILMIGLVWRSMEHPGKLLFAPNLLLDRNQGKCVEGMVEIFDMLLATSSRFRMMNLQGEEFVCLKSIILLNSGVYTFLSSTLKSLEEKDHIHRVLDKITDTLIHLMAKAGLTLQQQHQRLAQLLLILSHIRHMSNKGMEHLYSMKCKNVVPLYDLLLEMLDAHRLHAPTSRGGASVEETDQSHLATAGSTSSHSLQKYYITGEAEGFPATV

[5] = target: T1, ERα; assay: ERα levels in breast cells, in-cell western (Colorimetric In-Cell ELISA); type: cell-based
Method: IC50's were calculated using the least squares fit method. Error bars represent S.E.M from triplicate wells.
Target sequence in this assay (P03372 whole entry): as above

[6] = Pharmacokinetics in mice after oral gavage; type: in vivo, BALB/c female mice; details: 5 mg/kg oral gavage; for Oral drug exposure, free fraction taken into account: mice, 0-24 hours
Method: Pharmacokinetics were studied in BALB/c female mice. For each arm, three BALB/c female mice were given 5 mg/kg of compound in 0.5% CMC formulation by oral gavage. Concentration of compounds in mouse plasma and their metabolites were analyzed at each time point using LC-MS/MS. The concentrations were adjusted for the free fraction of drug in mouse plasma (method below). Area under the curve was calculated using the trapezoidal rule for 0-24 hours.

[7] = system: Clone 18 cells (MCF7/Her2/neu); assay: Xenograft study, MCF7/Her2/neu tumors in mice; type: in vivo, athymic ovariectomized nu/nu mice; details: oral gavage, doses as low as 10 mg/kg
Method: Xenograft studies were conducted by the Preclinical Therapeutics Core at the University of California, San Francisco in accordance with the Institutional Animal Care and Use Committee (IACUC) guidelines. Clone 18 cells (MCF7/Her2/neu) cells were grown in culture and implanted into athymic ovariectomized nu/nu mice. To stimulate tumor growth 0.36 mg estradiol 90 day release pellets (Innovative Research, Saratoga, FL) were implanted along with cells. When tumors reached 150-250 cubic millimeters the pellets were exchanged for 0.18 mg estradiol 90 day release pellets and divided into groups of six mice per treatment group. One of those groups received vehicle only (0.5% CMC+8% DMSO), and Compound B and Compound C each had 2 groups treated with either 10 or 100 mg/kg compound. Compounds were administered by oral gavage twice daily, except once daily on weekends/holidays for the first 21 days, and once daily after day 21. Tumors and bodyweight were measured twice weekly.

[8] = target: T1, ERα; assay: ERα binding, LanthaScreen Competitive Binding Assay (TR-FRET)
From the text: Compounds were screened for their ability to displace a fluorescent labelled tracer ERα ligand via time resolved fluorescent energy transfer using the LanthaScreen Competitive Binding Assay screening service (Thermo Fisher Scientific).
Target sequence in this assay (P03372 whole entry, looked up): as the sequence (P03372 whole entry) above

[9] = system: PR; details: De Savi; cited from earlier work
[10] = 100 nM dose, mean of n experiments

Row | SMILES | AP Agonist Act. (% of E2) [2] | Induction of Alkaline Phosphatase (AP) % E2 [2] | Induction of AP activity in uterine cells (% E2) [2] | Residual AP activity with 100 nM compound plus E2 (% of E2 alone) ([3]; 100 nM antiestrogen, 500 pM E2) | AP Antagonist Act. (% of E2) [3] | Residual AP activity with 100 nM compound plus E2 (% of E2 alone) [3, 10] | further results
1 | C[C@@H]1Cc2c([nH]c3ccccc23)[C@@H](c2c(F)cc(/C=C/C(=O)O)cc2F)N1CC(C)(C)F [AZD9496, (E)-3-(3,5-Difluoro-4-((1R,3R)-2-(2-fluoro-2-methylpropyl)-3-methyl-2,3,4,9-tetrahydro-1H-pyrido[3,4-b]indol-1-yl)phenyl)acrylic Acid] | 35 % of E2 | 39 % E2 | 35 % E2 |  |  |  | pIC50 [1]: 8.89; Estrogen-like activity as AP agonist and antagonist in comparison to Compounds A-D ([2]; AP agonist and antagonist modes): approximately 10 fold
2 | CCCN1CC(Oc2ccc([C@@H]3c4[nH]c5ccccc5c4C[C@@H](C)N3CC(C)(C)F)cc2F)C1 [Compound A, (1R,3R)-2-(2-fluoro-2-methylpropyl)-1-(3-fluoro-4-((1-propylazetidin-3-yl)oxy)phenyl)-3-methyl-2,3,4,9-tetrahydro-1H-pyrido[3,4-b]indole] | 3.96 % of E2 |  | 3.96 % E2 | 3.15 % E2 | 3.15 % of E2 |  | 
3 | CCCN1CC(Oc2ccc([C@@H]3c4[nH]c5ccccc5c4C[C@@H](C)N3CC(C)(C)F)cc2)C1 [Compound B, (1R,3R)-2-(2-fluoro-2-methylpropyl)-3-methyl-1-(4-((1-propylazetidin-3-yl)oxy)phenyl)-2,3,4,9-tetrahydro-1H-pyrido[3,4-b]indole] | 2.18 % of E2 | 1.78 % E2 | 2.18 % E2 | 1.96 % E2 | 1.96 % of E2 | 1.56 % E2 | Estrogen receptor degradation in MCF-7 cells (immunoblot, FIG. 7) [4]: degrades the estrogen receptor; Relative change in ERα levels in breast cells % Veh [5]: 45 % Veh; Relative change in ERα levels in breast cells pIC50 [5]: 8.57; Estrogen receptor degradation in MCF-7 cells (in-cell western, FIG. 2) ([5]; 24 hours): degrades the estrogen receptor; Oral bioavailability and half-life ([6]; BALB/c mice): high oral bioavailability and half-life; Oral drug exposure, free fraction taken into account [6]: better 24 hour drug exposure compared to other compounds; also recorded: substantially higher oral drug exposure; AP activity of ECC-1 cells co-treated with 500 pM 17β-estradiol, % of the activity 17β-estradiol would produce ([3]; co-treated with 500 pM 17β-estradiol): 1.96%; Effect on tumor size in xenografted mice [7]: shrinks MCF-7 (HER2/neu) tumors; also recorded: outstandingly potent in shrinking human breast cancer xenografts; ERα binding activity in words [8]: comparable activity to fulvestrant, Goodacre Compound 102, and Goodacre Compound 107; ERα binding pIC50 [8]: 8.57; AP activity of ECC-1 cells normalized to the effect of 500 pM 17β-estradiol ([2]; compound alone): 2.18%
4 | C[C@@H]1Cc2c([nH]c3ccccc23)[C@@H](c2ccc(OCCN3CC(CF)C3)cc2)N1CC(C)(C)F [Compound C, (1R,3R)-2-(2-fluoro-2-methylpropyl)-1-(4-(2-(3-(fluoromethyl)azetidin-1-yl)ethoxy)phenyl)-3-methyl-2,3,4,9-tetrahydro-1H-pyrido[3,4-b]indole] | 3.1 % of E2 | 1.71 % E2 | 3.1 % E2 | 2.5 % E2 | 2.5 % of E2 | 1.76 % E2 | Relative change in ERα levels in breast cells % Veh [5]: 42 % Veh; Relative change in ERα levels in breast cells pIC50 [5]: 8.87; Oral drug exposure, free fraction taken into account [6]: substantially higher oral drug exposure; Effect on tumor size in xenografted mice [7]: outstandingly potent in shrinking human breast cancer xenografts; ERα binding activity in words [8]: comparable activity to fulvestrant, Goodacre Compound 102, and Goodacre Compound 107
5 | C[C@@H]1Cc2c([nH]c3ccccc23)[C@@H](c2c(F)cc(OCCN3CC(CF)C3)cc2F)N1CC(C)(C)F [Compound D, (1R,3R)-1-(2,6-difluoro-4-(2-(3-(fluoromethyl)azetidin-1-yl)ethoxy)phenyl)-2-(2-fluoro-2-methylpropyl)-3-methyl-2,3,4,9-tetrahydro-1H-pyrido[3,4-b]indole, reference compound] | 3.37 % of E2 | 4.45 % E2 | 3.37 % E2 | 4.07 % E2 | 4.07 % of E2 | 3.98 % E2 | 
6 | C[C@]12CC[C@@H]3c4ccc(O)cc4C[C@@H](CCCCCCCCC[S+]([O-])CCCC(F)(F)C(F)(F)F)[C@H]3[C@@H]1CC[C@@H]2O (stereo partly shown) [Fulvestrant, reference compound] |  | −0.04 % E2 | −0.13 % E2 | −2.2 % E2 |  | −0.09 % E2 | 
7 | CCCN1CC(Oc2cc(F)c([C@@H]3c4[nH]c5ccccc5c4C[C@@H](C)N3CC(C)(C)F)c(F)c2)C1 [Goodacre Compound 107, (1R,3R)-1-(2,6-difluoro-4-((1-propylazetidin-3-yl)oxy)phenyl)-2-(2-fluoro-2-methylpropyl)-3-methyl-2,3,4,9-tetrahydro-1H-pyrido[3,4-b]indole, reference compound] |  | 0.00 % E2 |  |  |  | 1.03 % E2 | 
8 | Oc1ccc2c(c1)CC[C@H](c1ccccc1)[C@@H]2c1ccc(OCCN2CCCC2)cc1 [Lasofoxifene, reference compound] |  |  | 86 % E2 | 83 % E2 |  |  | 
9 | C[C@@H]1Cc2c([nH]c3ccccc23)[C@@H](c2ccc(/C=C/C(=O)O)cc2)N1CC(C)(C)F [WO 2014/191726 Example 2] |  |  |  |  |  |  | PR agonist pIC50 [9]: <5.5

From patent US20240131013A1, “TETRAHYDRO-1H-PYRIDO[3,4-b]INDOLE ANTI-ESTROGENIC DRUGS” (Olema Pharmaceuticals, Inc., priority 2015, published 2024)
